Reference: patent publication US8759013B2, “Dual-target biosensor cell assays” (Corning Incorporated, priority 2008, dated 2014)
“Also recorded” adds a separate entry of the source. Like-named read-outs stand apart in the source and are kept apart here.

Key:
[1] = tested on: endogenous receptors in A431 cells; experiment: LOPAC library agonist screening with biosensor cellular assay (DMR); format: cell-based, human; details: for identification of beta-adrenoceptor agonists as hits in the agonist screen: 1 microM
Procedure: (§1) Corning® Epic® wavelength interrogation system was used.
Furthermore, a ligand-induced DMR is a real time kinetic response containing many useful parameters (e.g., phases, amplitudes and kinetics) for analyzing ligand pharmacology. The LOPAC library was used to screen agonists for endogenous receptors in A431 cells using real time kinetic measurements.
First, the response in terms of wavelength shift between before and 2 min after stimulation was calculated.
Second, the responses in terms of wavelength shift between before and 50 min after stimulation were calculated.
Third, the responses in terms of wavelength shift between 2 min and 50 min after stimulation were calculated. The difference in resonant wavelength between the two time points was plotted as a function of compounds (FIG. 8).

[2] = molecular target: T1, histamine receptor subtype 1 (H1R) (Homo sapiens, UniProt P35367); experiment: Antagonist pretreatment against the histamine-induced DMR signal in A431 cells; format: cell-based; design: endogenous in cells; host or cells: A431 (human epidermoid carcinoma), quiescent after serum starvation; details: pretreatment of A431 with compound at 1 μM
T1 sequence (P35367 whole entry): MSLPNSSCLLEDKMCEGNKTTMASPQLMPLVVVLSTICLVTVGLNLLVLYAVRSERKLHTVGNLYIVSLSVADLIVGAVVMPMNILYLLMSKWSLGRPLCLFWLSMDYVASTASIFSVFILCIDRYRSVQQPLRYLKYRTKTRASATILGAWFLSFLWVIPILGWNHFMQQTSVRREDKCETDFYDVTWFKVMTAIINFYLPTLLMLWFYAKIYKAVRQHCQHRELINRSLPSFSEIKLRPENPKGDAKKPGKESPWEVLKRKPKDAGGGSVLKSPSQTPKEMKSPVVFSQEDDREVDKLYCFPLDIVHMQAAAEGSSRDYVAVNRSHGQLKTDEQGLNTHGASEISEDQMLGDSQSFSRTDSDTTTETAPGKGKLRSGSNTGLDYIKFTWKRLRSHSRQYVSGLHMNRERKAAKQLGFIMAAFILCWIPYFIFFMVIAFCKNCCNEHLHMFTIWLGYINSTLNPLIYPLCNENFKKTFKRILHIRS

[3] = molecular target: T1, histamine receptor subtype 1 (H1R); experiment: Dual receptor-specific antagonist screening (LOPAC), histamine response; format: cell-based; design: endogenous in cells; host or cells: A431 (human epidermoid carcinoma), quiescent after serum starvation
[4] = molecular target: T2, β2-adrenergic receptor (β2AR) (Homo sapiens, UniProt P07550); experiment: Dual receptor-specific antagonist screening (LOPAC), epinephrine response; format: cell-based; design: A431 cells endogenously express both PAR1 and β2AR; endogenous in cells; host or cells: A431 (human epidermoid carcinoma), quiescent after serum starvation
[5] = molecular target: T2, β2-adrenergic receptor (β2AR); details: for type of DMR signal induced: A431 cells, 2 nanomolar in b161/b162
Text: as §1
A431 endogenously expresses large numbers of the β2AR, but neither β1 nor β3-ARs. […] The DMR signal consists of a small decreased signal (i.e., N-DMR) with a short duration, followed by an increased signal (i.e., P-DMR) to an elevated level.

[6] = molecular target: T2, β2-adrenergic receptor (β2AR); details: co-stimulation with 2 nM epinephrine and 1 μM histamine; high doses
[7] = molecular target: T1, histamine receptor subtype 1 (H1R)
Text: as §1
To test this possibility, a desensitization assay was used.

[8] = molecular target: T1, histamine receptor subtype 1 (H1R); details: quiescent A431 cells
[9] = A431 cells, compound at 1 microM, real time kinetic
[10] = compound 1 microM for one hour, then cocktail of epinephrine and histamine

## CC(C)NCC(O)c1ccc(NS(C)(=O)=O)cc1 (racemic) [(±)-Sotalol]
[1]; [9]
  ligand-induced DMR signal in agonist screening: did not result in any apparent DMR signals

## CN(C)CCC(c1ccc(Br)cc1)c1ccccn1 (racemic) [(±)-brompheniramine]
[2]
  effect on the DMR signal induced by 1 μM histamine: completely inhibited
[1]; [9]
  ligand-induced DMR signal in agonist screening: did not lead to any DMR signal
[3]
  effect on the histamine response in the co-stimulation: completely or almost completely attenuated

## COCCc1ccc(OCC(O)CNC(C)C)cc1 (racemic) [(±)-metoprolol]
[1]; [9]
  ligand-induced DMR signal in agonist screening: did not result in any apparent DMR signals

## CC(C)NCC(O)COc1cccc2ccccc12 (racemic) [(±)-propranolol]
[1]; [9]
  ligand-induced DMR signal in agonist screening: did not result in any apparent DMR signals

## CC(C)(C)NCC(O)COc1cccc2[nH]c(=O)[nH]c12 (racemic) [(±)CGP12177]
[1]; [9]
  ligand-induced DMR signal in agonist screening: Gs-like DMR which only consists of the prolonged P-DMR event without the initial N-DMR event

## CN(C)CCC(c1ccc(Cl)cc1)c1ccccn1 (racemic) [(±)chlorpheniramine]
[1]; [9]
  ligand-induced DMR signal in agonist screening: did not lead to any DMR signal

## CN(C)CC[C@@H](c1ccc(Br)cc1)c1ccccn1 [(+)-brompheniramine]
[1]; [9]
  ligand-induced DMR signal in agonist screening: did not lead to any DMR signal
[3]
  effect on the histamine response in the co-stimulation: completely or almost completely attenuated

## CN(C)CC[C@@H](c1ccc(Cl)cc1)c1ccccn1 [(+)-chlorpheniramine]
[1]; [9]
  ligand-induced DMR signal in agonist screening: did not lead to any DMR signal

## CC(C)NC[C@H](O)COc1cccc2ccccc12 [(S)-propranolol]
[1]; [9]
  ligand-induced DMR signal in agonist screening: did not result in any apparent DMR signals

## Cc1ccc(OCC(O)C(C)NC(C)C)c2c1CCC2 (stereo not shown) [ICI 118,551]
[1]; [9]
  ligand-induced DMR signal in agonist screening: did not result in any apparent DMR signals
[3]; [10]
  effect on the histamine response in the co-stimulation: little impact

## CC(C)NCC(O)c1ccc(O)c(O)c1 (stereo not drawn) [R(−)isoproterenol]
[1]; [9]
  ligand-induced DMR signal in agonist screening: typical Gs-type DMR signal

## CC(C)(C)NC[C@H](O)COc1nsnc1N1CCOCC1 [S(−)-timolol]
[1]; [9]
  ligand-induced DMR signal in agonist screening: did not result in any apparent DMR signals

## CN(C)CCCCSC(=N)N [SKF91488]
[2]
  effect on the DMR signal induced by 1 μM histamine: did not have obvious impact

## c1cc(CN2CCCCC2)cc(OCCCNc2nc3ccccc3s2)c1 [SKF95282]
[1]; [9]
  ligand-induced DMR signal in agonist screening: DMR that was similar to pindolol
[4]; [10]
  effect on the epinephrine response in the co-stimulation: partial desensitization

## CCc1ccccc1OC[C@@H](O)CN[C@H]1CCCc2ccccc21 [SR 59230A]
[1]; [9]
  ligand-induced DMR signal in agonist screening: did not result in any apparent DMR signals
[4]; [10]
  effect on the epinephrine response in the co-stimulation: inhibited or partially attenuated
[3]; [10]
  effect on the histamine response in the co-stimulation: little impact

## C=CCc1ccccc1OCC(O)CNC(C)C (stereo not shown) [alprenolol]
[1]; [9]
  ligand-induced DMR signal in agonist screening: did not result in any apparent DMR signals
[3]; [10]
  effect on the histamine response in the co-stimulation: little impact

## CCCCc1oc2ccccc2c1C(=O)c1cc(I)c(OCCN(CC)CC)c(I)c1 [amiodarone]
[1]; A431 cells
  identification of beta-adrenoceptor agonists as hits in the agonist screen: false negative

## CN(C)CCC=C1c2ccccc2CCc2ccccc21 [amitriptyline]
[4]; [10]
  effect on the epinephrine response in the co-stimulation: little effect

## Clc1ccc2c(c1)C(N1CCNCC1)=Nc1ccccc1O2 [amoxapine]
[4]; [10]
  effect on the epinephrine response in the co-stimulation: little effect

## CC(C)NCC(O)COc1ccc(CCOCC2CC2)cc1 (stereo not shown) [betaxolol]
[1]; [9]
  ligand-induced DMR signal in agonist screening: did not result in any apparent DMR signals
[3]; [10]
  effect on the histamine response in the co-stimulation: little impact

## CN1CCC[C@@H]1CCO[C@](C)(c1ccccc1)c1ccc(Cl)cc1 [clemastine]
[1]; [9]
  ligand-induced DMR signal in agonist screening: did not lead to any DMR signal

## Clc1ccc(Cn2c(CN3CCCC3)nc3ccccc32)cc1 [clemizole]
[2]
  effect on the DMR signal induced by 1 μM histamine: completely inhibited
[1]; [9]
  ligand-induced DMR signal in agonist screening: did not lead to any DMR signal
[3]; [10]
  effect on the histamine response in the co-stimulation: completely or almost completely attenuated

## CN(C)CCOC(C)(c1ccccc1)c1ccccn1 (stereo not shown) [doxylamine]
[1]; [9]
  ligand-induced DMR signal in agonist screening: did not lead to any DMR signal
[3]; [10]
  effect on the histamine response in the co-stimulation: completely or almost completely attenuated

## CNC[C@H](O)c1ccc(O)c(O)c1 [epinephrine]
[5]
  type of DMR signal induced: Gs-type DMR signal
[5]; listed as Epinephrine
  type of DMR signal induced: biphasic Gs-type DMR response
[5]; quiescent A431 cells, n=10
  Hill slope of the epinephrine DMR response: 0.95
[6]
  effect of pretreatment on the epinephrine response: completely inhibited

## NC(N)=Nc1nc(CSCCC(N)=NS(N)(=O)=O)cs1 [famotidine]
[1]; [9]
  ligand-induced DMR signal in agonist screening: DMR that was similar to pindolol
[4]; [10]
  effect on the epinephrine response in the co-stimulation: partial desensitization

## CC(C)(C(=O)O)c1ccc(C(O)CCCN2CCC(C(O)(c3ccccc3)c3ccccc3)CC2)cc1 (stereo not shown) [fexofenadine]
[1]; [9]
  ligand-induced DMR signal in agonist screening: did not lead to any DMR signal

## NCCc1c[nH]cn1 [histamine]
[7]
  Hill slope for inhibition of the histamine response: 1.4
  effect of pretreatment on the histamine response: completely inhibited
[8]
  type of DMR (optical) signal induced: dose-dependent and saturable Gq-type optical signal
[8]; n=6
  Hill coefficient of the histamine saturation curve: 1.87
[1]; [9]
  ligand-induced DMR signal in agonist screening: biphasic Gq-type DMR signal; also recorded: Gq-like DMR signal
[4]; [10]
  effect on the epinephrine response in the co-stimulation: but not to epinephrine
[6]
  effect of pretreatment on the epinephrine response: slightly attenuated
[3]
  effect on the histamine response in the co-stimulation: complete desensitization

## N=C(N)SCCc1cnc[nH]1 [imetit]
[1]; [9]
  ligand-induced DMR signal in agonist screening: did not lead to any obvious DMR signal

## CN1CCC(=C2c3ccccc3CC(=O)c3sccc32)CC1 [ketotifen]
[1]; [9]
  ligand-induced DMR signal in agonist screening: did not lead to any DMR signal

## CNCCCC12CCC(c3ccccc31)c1ccccc12 [maprotiline]
[4]; [10]
  effect on the epinephrine response in the co-stimulation: little effect

## CN(C)CCN(Cc1cccs1)c1ccccn1 [methapyrilene]
[1]; [9]
  ligand-induced DMR signal in agonist screening: did not lead to any DMR signal

## CNCCC=C1c2ccccc2CCc2ccccc21 [nortriptyline]
[4]
  effect on the epinephrine response in the co-stimulation: little effect

## CN(C)CCC(c1ccccc1)c1ccccn1 (stereo not shown) [pheniramine]
[1]; [9]
  ligand-induced DMR signal in agonist screening: did not lead to any DMR signal
[3]; [10]
  effect on the histamine response in the co-stimulation: partial inhibition

## CC(COc1ccccc1)N(CCCl)Cc1ccccc1 (stereo not shown) [phenoxybenzamine]
[4]; [10]
  effect on the epinephrine response in the co-stimulation: little effect
[3]
  effect on the histamine response in the co-stimulation: almost completely inhibited

## CC(CN1c2ccccc2Sc2ccccc21)N(C)C (stereo not shown) [promethazine]
[1]; [9]
  ligand-induced DMR signal in agonist screening: did not lead to any DMR signal

## COc1ccc(CN(CCN(C)C)c2ccccn2)cc1 [pyrilamine]
[1]; [9]
  ligand-induced DMR signal in agonist screening: did not lead to any DMR signal

## CC(C)(C)c1ccc(C(O)CCCN2CCC(C(O)(c3ccccc3)c3ccccc3)CC2)cc1 (stereo not shown) [terfenadine]
[1]; [9]
  ligand-induced DMR signal in agonist screening: did not lead to any DMR signal

## S=C(NC1CCCCC1)N1CCC(c2cnc[nH]2)CC1 [thioperamide]
[2]
  effect on the DMR signal induced by 1 μM histamine: did not have obvious impact

## Cc1ccc(/C(=C\CN2CCCC2)c2ccccn2)cc1 [triprolidine]
[2]
  effect on the DMR signal induced by 1 μM histamine: completely inhibited
[1]; [9]
  ligand-induced DMR signal in agonist screening: did not lead to any significant DMR signal
[3]; [10]
  effect on the histamine response in the co-stimulation: completely or almost completely attenuated

## (S)-(−)-propafenone
[1]; [9]
  ligand-induced DMR signal in agonist screening: did not result in any apparent DMR signals
[4]; [10]
  effect on the epinephrine response in the co-stimulation: inhibited or partially attenuated

## (±)-ephedrine
[1]; A431 cells
  identification of beta-adrenoceptor agonists as hits in the agonist screen: false negative

## (±)isoproterenol
[1]; [9]
  ligand-induced DMR signal in agonist screening: typical Gs-type DMR signal

## R(−)-α-methyl-histamine
[1]
  ligand-induced DMR signal in agonist screening: did not lead to any obvious DMR signal

## Ruthernium red
[1]; [9]
  ligand-induced DMR signal in agonist screening: Gs-like DMR signal but with much larger amplitude

## S(−)pindolol
[1]; [9]
  ligand-induced DMR signal in agonist screening: Gs-like DMR which only consists of the prolonged P-DMR event without the initial N-DMR event
